Laboratory results from patent US12172988B2, “Anticancer and antifungal splice modulators” (priority 2021, dated 2024).

Assays:
[1] = test system: DNAJB1; test: qPCR splicing analysis, DNAJB1 intron retention; type: cell-based, human; settings: for DNAJB1 intron retention: HCT116, 24 h, 100, 250, 500 nM, compared to 1
Protocol: (§1) HCT116 tumor cells were treated with each analogue at 20 times the G150 value (Table 12) for 4 hours and then cellular RNA was isolated and purified for qPCR. Primers were designed to evaluate intron retention or exon skipping, direct responses to splice modulator treatment. Genes evaluated included those involved in splicing regulation (SF3A1, SF3A3, SF3B1, SF3B2), apoptosis (MCL-1L), protein folding (DNAJB1), and cell cycle regulation (AURKA, PLK-1) relative to the unspliced control GAPDH. For alternative splicing regulator (SF2), primers were designed to evaluate gene expression, which changes in response splice modulator treatment for SF2 relative to the unspliced control GAPDH. (−) denotes untreated cells.
as §1, with “analogues” for “each analogue”, “100 nM (light grey), 250 nM (grey), or 500 nM (black)” for “20 times the G150 value (Table 12)”, “24 h” for “4 hours”, “(MCL-1L), and” for “(MCL-1L),”, “(DNAJB1),” for “(DNAJB1), and cell cycle regulation (AURKA, PLK-1)”, “(—)” for “(−)”
Next, we turned our efforts to explore the ability of these analogues to modulate splicing. […] We treated cells for 4 h so that we could evaluate early changes in splicing activity, and then cellular RNA was isolated and purified for analyses by qPCR (FIG. 14). Most importantly, none of the concentrations tested led to significant changes in cell viability, ensuring that changes in gene expression were not due to cell death.
(§2) For these studies, we evaluated the expression of genes involved in splicing regulation (SF3A1, SF3A3, SF3B1, SF3B2), apoptosis (MCL-1L), protein folding (DNAJB1), and cell cycle regulation (AURKA, PLK-1) relative to the unspliced control GAPDH. Primers were designed to evaluate intron retention or exon skipping, direct responses to splice modulator treatment. The master splicing regulator alternative splicing factor (SF2) was also evaluated, with the primers for this gene designed to evaluate overall gene expression, which changes in response to splice modulator treatment.
(§3) From this 4 h study (FIG. 14), a small set of analogs (1, 1b, 1g, 1d, 1e, 1i and 1j) were selected to evaluate if effects on splicing when presented for a longer 24 h period. […] Using identical procedures as that used for 4 h, HCT116 cells were treated with three concentrations (100 nM, 250 nM and 500 nM) of each analog for 24 h. Multiple concentrations were used as a means to check further validate the use of the GI50 concentration in our prior study (FIG. 14). As before, none of the concentrations tested led to significant changes in cell viability over the 24-hour time window, ensuring that changes in gene expression were not due to cell death.
Cells were treated with 1 or 1a-1j in media (McCoy's 5a (Life Technologies) supplemented with 10% FBS, 2 mM L-glutamine, and 100 U mL^−1 of penicillin and 100 μg mL^−1 of streptomycin 0.5% DMSO) for 4 h or 24 h. Untreated cells were considered were used as negative control. Total RNA was isolated using mirVana miRNA isolation kit (Life Technologies). […]

[2] = test system: HCT116 tumor cells; test: qPCR structure-splicing profile over the gene panel; type: cell-based, human; settings: HCT116, 24 h, 100, 250, 500 nM, compared to 1
Protocol: as §1, with “analogues” for “each analogue”, “100 nM (light grey), 250 nM (grey), or 500 nM (black)” for “20 times the G150 value (Table 12)”, “24 h” for “4 hours”, “(MCL-1L), and” for “(MCL-1L),”, “(DNAJB1),” for “(DNAJB1), and cell cycle regulation (AURKA, PLK-1)”, “(—)” for “(−)”
as §2, §3
Cells were treated with 1 or 1a-1j in media (McCoy's 5a (Life Technologies) supplemented with 10% FBS, 2 mM L-glutamine, and 100 U mL^−1 of penicillin and 100 μg mL^−1 of streptomycin 0.5% DMSO) for 4 h or 24 h. Untreated cells were considered were used as negative control. Total RNA was isolated using mirVana miRNA isolation kit (Life Technologies). A 1 μg sample of RNA was subjected to DNAseI from a TURBO DNA free kit (Life Technologies). The cDNA was prepared by using SuperScript III reverse transcriptase kit (Life Technologies). The amount of unspliced RNA for different genes was determined using Power SYBR Green PCR master mix (Applied Biosystems) by qPCR using specific primers for each gene. qPCR using 2.5 μM of each primer was performed on 5 ng of the obtained cDNA. qPCR conditions were as follows: 95° C. for 10 min for one cycle, then 95° C. for 10 min for one cycle, then 95° C. for 30 s, 55° C. for 60 s, 72° C. for 60 s, for 40 cycles using the MXPro. Quantification cycle (Cq) values were identified for each sample, and then RNA levels were calculated using 2-ΔΔCT method. GAPDH was used as a control for normalization. At least three replicates were conducted for each compound. Namely, all genes explored in this study were evaluated from the same cell cultures. Here, individual cultures were used for each compound explored and at least three replicates were used for each compound. While experimental variation occurred between the different compound treatments, the levels of the different intron retention, exon skipping or RNA expression were collected from the same cellular material. Statistics were calculated using a standard one-way ANOVA; p values were represented so that * signifies p<0.0001. HCT116 were treated with analogs 1-1j ranging from 0.1-5000 nM for 72 hours, then cell viability was measured using the MTS assay. GI50 values and confidence intervals were calculated using GraphPad (Table 12).

| Structure (SMILES) | DNAJB1 intron retention [1] | splicing activity over the genes tested [2] | DNAJB1 intron 2 retention (level of intron retention) ([1]; HCT116, 4 h, 20 times GI50, qPCR relative to GAPDH) |
| --- | --- | --- | --- |
| CC[C@H](OC)[C@@H](C)[C@H]1O[C@@H]1[C@@H](O)[C@H](C)/C=C/C=C(\C)[C@H]1OC(=O)C[C@H](O)CC[C@@](C)(O)[C@@H](OC(C)=O)/C=C/[C@@H]1C [Analog 1d, 17S-FD-895] | decreased level of intron retention | modest switch in gene selectivity | – |
| CC[C@H](OC)[C@@H](C)[C@H]1O[C@@H]1[C@@H](O)[C@H](C)/C=C/C=C(\C)[C@H]1OC(=O)C[C@@H](O)CC[C@@](C)(O)[C@@H](OC(C)=O)/C=C/[C@@H]1C [Analog 1g, 3S,17S-FD-895] | loss in intron retention | – | highest level of intron retention |
| CC[C@H](OC)[C@@H](C)[C@@H]1O[C@H]1[C@@H](O)[C@H](C)/C=C/C=C(\C)[C@H]1OC(=O)C[C@H](O)CC[C@@](C)(O)[C@@H](OC(C)=O)/C=C/[C@@H]1C [Analog 1i, 17S,18S,19S-FD-895] | – | drastic reduction in splicing activity | – |
| CC[C@@H](OC)[C@H](C)[C@H]1O[C@@H]1[C@@H](O)[C@H](C)/C=C/C=C(\C)[C@H]1OC(=O)C[C@H](O)CC[C@@](C)(O)[C@@H](OC(C)=O)/C=C/[C@@H]1C [Analog 1j, 17S,20S,21R-FD-895] | – | splicing profile comparable to 1i | – |
